Reference: patent US4048299A, “Anticaries confectionaries and oral health products” (William Wrigley, Jr. Co., priority 1970, dated 1977)

Columns and labels:
[1] = test system: Lactobacillus casei and Streptococcus sp. FA-1; experiment: Acid-production inhibition by broth-tube assay, 0.1 percent of compound; assay type: cell-based; details: Table XII; 0.1% of compound
Protocol: ^(a) Activity was measured by broth-tube assay to determine percent
(§1) acid-production inhibition obtained by Lactobacillus casei and
Streptococcus sp. FA-1 in the presence of 0.1 percent of compound.
^(a) Activity was measured by broth-tube assay to determine percent o
as §1
Streptococcus sp. FA-1 in the presence of 0.1% of compound. Symbols

[2] = test system: oral microorganisms; experiment: Acid production inhibition in vitro (summary); assay type: cell-based; details: in words, summary of tables
Protocol: (§2) Other in vitro evaluations utilized a broth tube analysis of representative anticaries aldehydes incorporated in the vehicles of this invention against cultures of acid producing microorganisms normally present in the mouth. Standard laboratory procedures were utilized throughout to evaluate the acid production inhibition and growth inhibition over the incubation time of up to 24 hours.

[3] = test system: Streptococcus sp. GS-5; experiment: Acid production inhibition, broth-tube technique; assay type: cell-based; details: Table XI, emulsion with 4 parts Tween 20
Protocol: (a)2,4-Hexadienal was prepared as an emulsion with 4 parts of Tween 20.

[4] = test system: oral microorganisms; experiment: Growth inhibition in vitro (summary); assay type: cell-based; details: in words, summary of tables
Protocol: as §2

[5] = test system: Streptococcus sp. FA-1; experiment: Acid production inhibition, broth-tube technique; details: Table XI, emulsion with 4 parts Tween 20
Source text: (§3) The data was compiled through well-known broth tube analysis techniques.
(a)Measured by broth-tube technique.

[6] = test system: Lactobacillus casei; experiment: Acid production inhibition, broth-tube technique; details: Table XI, emulsion with 4 parts Tween 20
Source text: as §3
(a)Measured by broth-tube technique.

CC=CC=CC=O [2,4-Hexadienal]
Activity, Acid-Production Inhibition, % [1]: ++++ (99 to 100)
Acid Production Inhibition [2]: excellent acid production inhibition
Inhibition of Acid Production ([3]; 0.01 percent): 8%
Inhibition of Acid Production ([3]; 0.025 percent): 35%
Inhibition of Acid Production ([3]; 0.05 percent): 97%
Inhibition of Acid Production ([3]; 0.075 percent): 99%
Inhibition of Acid Production ([3]; 0.10 percent): 100%
Growth Inhibition [4]: little or no growth inhibition
Inhibition of Acid Production ([5]; 0.01 percent): 31%
Inhibition of Acid Production ([5]; 0.025 percent): 92%
Inhibition of Acid Production ([5]; 0.05 percent): 99%
Inhibition of Acid Production ([5]; 0.075 percent): 99%
Inhibition of Acid Production ([5]; 0.10 percent): 100%
Inhibition of Acid Production ([6]; 0.01 percent): 27%
Inhibition of Acid Production ([6]; 0.025 percent): 43%
Inhibition of Acid Production ([6]; 0.05 percent): 88%
Inhibition of Acid Production ([6]; 0.075 percent): 94%
Inhibition of Acid Production ([6]; 0.10 percent): 98%
